# Measurements as given in BindingDB's records for doi:10.1124/jpet.104.078303 (Abbott Laboratories, 2005).
# Where “and” joins values, the source holds several entries; their conditions need not be identical. Equal values may be shown once.
# Tests used:
# [1] = biological target: Histamine H4 receptor (Homo sapiens, UniProt Q9H3N8)
# [2] = biological target: Histamine H1 receptor (Homo sapiens, UniProt P35367)
# [3] = biological target: Histamine H3 receptor (Cavia porcellus, UniProt Q9JI35)
# [4] = biological target: Histamine receptor H3 (Canis lupus familiaris, UniProt Q865E3)
# Sequence of Histamine receptor H3 (Q865E3 whole entry): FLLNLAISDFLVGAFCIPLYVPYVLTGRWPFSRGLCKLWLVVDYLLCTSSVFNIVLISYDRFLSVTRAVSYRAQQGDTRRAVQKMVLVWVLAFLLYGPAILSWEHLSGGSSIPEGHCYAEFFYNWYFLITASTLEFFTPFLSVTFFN
# [5] = biological target: Hrh3 protein (Rattus norvegicus, UniProt Q5PPG3)
# Sequence of Hrh3 protein (Q5PPG3 whole entry): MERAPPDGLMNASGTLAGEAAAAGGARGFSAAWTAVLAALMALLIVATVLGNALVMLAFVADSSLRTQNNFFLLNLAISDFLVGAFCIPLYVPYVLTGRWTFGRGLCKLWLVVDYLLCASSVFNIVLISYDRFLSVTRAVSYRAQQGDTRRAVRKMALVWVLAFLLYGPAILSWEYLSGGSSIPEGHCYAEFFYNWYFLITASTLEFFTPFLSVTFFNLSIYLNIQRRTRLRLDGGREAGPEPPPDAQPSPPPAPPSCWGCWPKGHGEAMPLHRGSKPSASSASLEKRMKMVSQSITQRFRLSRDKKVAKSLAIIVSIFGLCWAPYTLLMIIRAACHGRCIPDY
# [6] = biological target: Histamine H3 receptor (Homo sapiens, UniProt Q9Y5N1)
# Sequence of Histamine H3 receptor (Homo sapiens, UniProt Q9Y5N1) (Q9Y5N1 whole entry): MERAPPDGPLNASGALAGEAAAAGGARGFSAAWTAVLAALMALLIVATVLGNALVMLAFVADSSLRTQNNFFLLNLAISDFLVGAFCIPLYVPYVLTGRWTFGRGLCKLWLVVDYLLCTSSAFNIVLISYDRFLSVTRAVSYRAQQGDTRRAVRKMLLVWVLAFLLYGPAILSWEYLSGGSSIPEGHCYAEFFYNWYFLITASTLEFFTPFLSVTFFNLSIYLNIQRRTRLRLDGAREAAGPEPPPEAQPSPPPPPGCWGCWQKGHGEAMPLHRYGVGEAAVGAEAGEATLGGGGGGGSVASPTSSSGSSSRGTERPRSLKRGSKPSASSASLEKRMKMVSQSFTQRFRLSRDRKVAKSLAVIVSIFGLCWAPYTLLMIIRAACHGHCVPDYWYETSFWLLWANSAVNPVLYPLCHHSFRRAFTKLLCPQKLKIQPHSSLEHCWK
# [7] = biological target: Histamine H2 receptor (Homo sapiens, UniProt P25021)
# Sequence of Histamine H2 receptor (P25021 whole entry): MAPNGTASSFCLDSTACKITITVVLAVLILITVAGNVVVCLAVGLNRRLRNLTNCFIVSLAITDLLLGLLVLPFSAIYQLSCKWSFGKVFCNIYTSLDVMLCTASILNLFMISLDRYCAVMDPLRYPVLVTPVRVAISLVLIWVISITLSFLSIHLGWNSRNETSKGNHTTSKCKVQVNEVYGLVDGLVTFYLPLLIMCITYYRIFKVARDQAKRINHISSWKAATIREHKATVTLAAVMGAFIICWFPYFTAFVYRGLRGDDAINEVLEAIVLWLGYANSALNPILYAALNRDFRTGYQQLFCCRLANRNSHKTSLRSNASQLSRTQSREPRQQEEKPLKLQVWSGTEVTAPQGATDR
# Sequence of Histamine H4 receptor (Q9H3N8 whole entry): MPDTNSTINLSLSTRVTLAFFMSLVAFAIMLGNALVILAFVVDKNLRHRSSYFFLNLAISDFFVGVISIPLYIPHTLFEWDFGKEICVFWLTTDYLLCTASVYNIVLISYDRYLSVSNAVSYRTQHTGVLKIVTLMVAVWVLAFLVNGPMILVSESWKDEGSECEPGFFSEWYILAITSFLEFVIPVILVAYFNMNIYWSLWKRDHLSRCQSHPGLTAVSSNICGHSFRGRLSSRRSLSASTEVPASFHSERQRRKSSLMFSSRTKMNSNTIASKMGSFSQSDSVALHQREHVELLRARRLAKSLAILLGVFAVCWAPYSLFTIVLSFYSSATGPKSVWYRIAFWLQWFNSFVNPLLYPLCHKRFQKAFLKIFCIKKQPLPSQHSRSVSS
# Sequence of Histamine H3 receptor (Cavia porcellus, UniProt Q9JI35) (Q9JI35 whole entry): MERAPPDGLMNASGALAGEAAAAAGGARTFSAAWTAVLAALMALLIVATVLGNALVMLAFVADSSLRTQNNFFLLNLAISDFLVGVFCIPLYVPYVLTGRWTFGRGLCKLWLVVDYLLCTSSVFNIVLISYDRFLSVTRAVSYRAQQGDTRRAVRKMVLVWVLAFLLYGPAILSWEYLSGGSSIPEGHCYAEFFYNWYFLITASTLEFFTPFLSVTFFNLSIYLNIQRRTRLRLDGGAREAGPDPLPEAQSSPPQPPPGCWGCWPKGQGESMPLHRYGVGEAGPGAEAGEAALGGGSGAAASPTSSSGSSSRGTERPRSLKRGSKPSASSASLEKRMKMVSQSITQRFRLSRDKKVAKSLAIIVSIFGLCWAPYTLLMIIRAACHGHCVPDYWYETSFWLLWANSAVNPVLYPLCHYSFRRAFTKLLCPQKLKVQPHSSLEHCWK
# Sequence of Histamine H1 receptor (P35367 whole entry): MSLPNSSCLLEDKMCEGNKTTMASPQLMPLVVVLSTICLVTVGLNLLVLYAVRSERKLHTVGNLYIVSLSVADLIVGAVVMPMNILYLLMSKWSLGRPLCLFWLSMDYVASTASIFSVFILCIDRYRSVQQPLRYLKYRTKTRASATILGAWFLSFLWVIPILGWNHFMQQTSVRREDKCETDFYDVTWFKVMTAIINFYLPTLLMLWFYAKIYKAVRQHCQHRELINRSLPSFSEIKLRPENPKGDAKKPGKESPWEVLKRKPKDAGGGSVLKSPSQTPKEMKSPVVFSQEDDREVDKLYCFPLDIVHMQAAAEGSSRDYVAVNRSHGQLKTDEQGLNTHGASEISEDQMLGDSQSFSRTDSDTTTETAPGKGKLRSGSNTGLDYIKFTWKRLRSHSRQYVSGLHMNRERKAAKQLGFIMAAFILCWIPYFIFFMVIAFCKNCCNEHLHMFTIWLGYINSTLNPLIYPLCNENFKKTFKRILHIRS
SMILES,Ki [1],Ki [2],Ki [3],Ki [4],Ki [5],Ki [6],Ki [7]
CC(C)(C)CCC#C[C@@H]1C[C@H]1c1c[nH]cn1,51.3 nM,> 10000 nM,0.63 nM,1.32 nM,0.11 nM and 0.25 nM,5.25 nM and 12.3 nM,> 10000 nM
"C[C@@H]1CC[C@@H](C)N1CCCOc1ccc(-c2ccc(C(=O)N3CCOCC3)cc2)cc1 [(4'-(3-((2R,5R)-2,5-dimethylpyrrolidin-1-yl)propoxy)biphenyl-4-yl)(morpholino)methanone]",> 10000 nM,–,0.55 nM,1.2 nM,1.66 nM and 1.45 nM,0.41 nM and 0.43 nM,> 10000 nM
C[C@@H]1CCCN1CCc1cc2cc(-c3ccc(C#N)cc3)ccc2o1 [(R)-4-(2-(2-(2-methylpyrrolidin-1-yl)ethyl)benzofuran-5-yl)benzonitrile],> 10000 nM,1620 nM,–,3.89 nM,1.23 nM and 3.24 nM,–,6760 nM
